Measured values reported in patent US20230312616A1, “MODULATORS OF CYSTIC FIBROSIS TRANSMEMBRANE CONDUCTANCE REGULATOR” (priority 2018, published 2023).

system: CFTR; test: CFTR modulating activity, generated using one or more of the assays disclosed (e.g. membrane potential dye assay in enteroid cells); type: cell-based, human; details: one or more of the assays disclosed herein; qualitative (Active / ND)
Text: Human intestinal epithelial enteroid cells may be obtained from the Hubrecht Institute for Developmental Biology and Stem Cell Research, Utrecht, The Netherlands and expanded in T-Flasks as previously described (Dekkers JF, Wiegerinck CL, de Jonge HR, Bronsveld I, Janssens HM, de Winter-de Groot KM, Brandsma AM, de Jong NWM, Bijvelds MJC, Scholte BJ, Nieuwenhuis EES, van den Brink S, Clevers H, van der Ent CK, Middendorp S and M Beekman JM. A functional CFTR assay using primary cystic fibrosis intestinal organoids. Nat Med. 2013 Jul;19(7):939-45.).
Cells may be recovered in cell recovery solution, collected by centrifugation at 650 rpm for 5 min at 4° C., resuspended in TryPLE and incubated for 5 min at 37° C. Cells can then be collected by centrifugation at 650 rpm for 5 min at 4° C. and resuspended in IEMM containing 10 µM ROCK inhibitor (RI). The cell suspension is then passed through a 40 µm cell strainer and resuspended at 1x10^6 cells/mL in IEMM containing 10 µM RI. Cells may be seeded at 5000 cells/well into multi-well plates and incubated for overnight at 37° C., 95% humidity and 5% CO2 prior to assay.
Enteroid cells may be incubated with test compound in IEMM for 18-24 hours at 37° C., 95% humidity and 5% CO2. Following compound incubations, a membrane potential dye assay can be employed using a FLIPR Tetra to directly measure the potency and efficacy of the test compound on CFTR-mediated chloride transport following acute addition of 10 µM forskolin and 300 nM N-[2,4-bis(1,1-dimethylethyl)-5-hydroxyphenyl]-1,4-dihydro-4-oxoquinoline-3-carboxamide. Briefly, cells aree washed 5 times in Bath 1 Buffer. Bath 1 Dye Solution is added and the cells are incubated for 25 min at room temperature. Following dye incubation, cells are washed 3 times in Chloride Free Dye Solution. Chloride transport is initiated by addition of Chloride Free Dye Stimulation Solution and the fluorescence signal is read for 15 min. The CFTR-mediated chloride transport for each condition may be determined from the AUC of the fluorescence response to acute forskolin and 300 nM N-[2,4-bis(1,1-dimethylethyl)-5-hydroxyphenyl]-1,4-dihydro-4-oxoquinoline-3-carboxamide stimulation.
Chloride transport may be expressed as a percentage of the chloride transport following treatment with one or more reference standards or positive controls. Suitable reference standards/controls include one or more of Compound II, Compound III, Compound IV, and Compound A. Compound A is:
Table 6 confirms CFTR modulating activity for representative compounds of the invention generated using one or more of the assays disclosed herein.

| Compound | CFTR Modulating Activity |
| --- | --- |
| C[C@@H]1CN(c2nc(-n3ccc(OCCC4(C(F)(F)F)CC4)n3)ccc2C(=O)NS(=O)(=O)c2ccccc2)C(C)([Si](C)(C)C)C1 (single isomer, unassigned) [2-10 Isomer 2] | Active |
| CC1(C)CC([Si](C)(C)C)CN1c1nc(-n2ccc(OCCC3(C(F)(F)F)CC3)n2)ccc1C(=O)NS(=O)(=O)c1ccccc1 (single isomer, unassigned) [2-13 Enantiomer 1, N-(Benzenesulfonyl)-2-(2,2-dimethyl-4-trimethylsilyl-pyrrolidin-1-yl)-6-[3-[2-[1-(Trifluoromethyl)Cyclopropyl]Ethoxy]Pyrazol-1-yl]Pyridine-3-carboxamide] | Active |
| C[C@@H]1CN(c2nc(-n3ccc(OCCC4(C(F)(F)F)CC4)n3)c([Si](C)(C)C)cc2C(=O)NS(=O)(=O)c2ccccc2)C(C)(C)C1 [Compound 2-1, N-(Benzenesulfonyl)-6-[3-[2-[1-(Trifluoromethyl)Cyclopropyl]Ethoxy]Pyrazol-1-yl]-2-[(4S)-2,2,4-trimethylpyrrolidin-1-yl]-5-trimethylsilyl-pyridine-3-carboxamide] | Active |
| C[C@@H]1CN(c2nc([Si](C)(C)c3ccccc3)ccc2C(=O)NS(=O)(=O)c2ccccc2)C(C)(C)C1 [Compound 2-2, N-(Benzenesulfonyl)-6-[Dimethyl(Phenyl)Silyl]-2-[(4S)-2,2,4-trimethylpyrrolidin-1-yl]Pyridine-3-carboxamide] | Active |
| C[C@@H]1CN(c2nc([Si](C)(C)CCC(C)(C)C)ccc2C(=O)NS(=O)(=O)c2ccccc2)C(C)(C)C1 [Compound 2-3, N-(benzenesulfonyl)-6-[3,3-dimethylbutyl(dimethyl)silyl]-2-[(4S)-2,2,4-trimethylpyrrolidin-1-yl]pyridine-3-carboxamide] | Active |
| Cc1ccc([Si](C)(C)c2ccc(C(=O)NS(=O)(=O)c3ccccc3)c(N3C[C@@H](C)CC3(C)C)n2)cc1 [Compound 2-4, N-(Benzenesulfonyl)-6-[Dimethyl(p-tolyl)Silyl]-2-[(4S)-2,2,4-trimethylpyrrolidin-1-yl]pyridine-3-carboxamide] | Active |
| C[C@@H]1CN(c2nc(-n3ccc([Si](C)(C)CCC(C)(C)C)n3)ccc2C(=O)NS(=O)(=O)c2ccccc2)C(C)(C)C1 [Compound 2-5, N-(Benzenesulfonyl)-6-[3-[3,3-dimethylbutyl(Dimethyl)Silyl]Pyrazol-1-yl]-2-[(4S)-2,2,4-trimethylpyrrolidin-1-yl]Pyridine-3-carboxamide] | Active |
| C[C@@H]1CN(c2nc(-n3ccc(OCCC4([Si](C)(C)C)CC4)n3)ccc2C(=O)NS(=O)(=O)c2ccccc2)C(C)(C)C1 [Compound 2-6, N-(Benzenesulfonyl)-2-[(4S)-2,2,4-trimethylpyrrolidin-1-yl]-6-[3-[2-(1-trimethylsilylcyclopropyl)Ethoxy]Pyrazol-1-yl] Pyridine-3-carboxamide] | Active |
| C[C@@H]1CN(c2nc(-n3ccc(OCC[Si](C)(C)C)n3)ccc2C(=O)NS(=O)(=O)c2ccccc2)C(C)(C)C1 [Compound 2-7, N-(Benzenesulfonyl)-2-[(4S)-2,2,4-trimethylpyrrolidin-1-yl]-6-[3-(2-trimethylsilylethoxy)Pyrazol-1-yl]Pyridine-3-carboxamide] | Active |
| C[C@@H]1CN(c2nc([Si](C)(C)C)ccc2C(=O)NS(=O)(=O)c2ccccc2)C(C)(C)C1 [Compound 2-8, N-(Benzenesulfonyl)-2-[(4S)-2,2,4-trimethylpyrrolidin-1-yl]-6-trimethylsilyl-pyridine-3-carboxamide] | Active |
| C[C@@H]1CN(c2nc(-n3ccc(OCCC[Si](C)(C)C)n3)ccc2C(=O)NS(=O)(=O)c2ccccc2)C(C)(C)C1 [Compound 2-9, N-(Benzenesulfonyl)-2-[(4S)-2,2,4-trimethylpyrrolidin-1-yl]-6-[3-(3-trimethylsilylpropoxy)Pyrazol-1-yl]Pyridine-3-carboxamide] | Active |
| C[C@@H]1CN(c2nc(-n3ccc(OC[Si](C)(C)C)n3)ccc2C(=O)NS(=O)(=O)c2ccccc2)C(C)(C)C1 [Compound 2-11, N-(Benzenesulfonyl)-2-[(4S)-2,2,4-trimethylpyrrolidin-1-yl]-6-[3-(Trimethylsilylmethoxy)Pyrazol-1-yl]Pyridine-3-carboxamide] | Active |
| C[C@@H]1CN(c2nc(-n3ccc([Si](C)(C)CCC(F)(F)F)n3)ccc2C(=O)NS(=O)(=O)c2ccccc2)C(C)(C)C1 [Compound 2-12, N-(Benzenesulfonyl)-6-[3-[Dimethyl(3,3,3-trifluoropropyl)Silyl]Pyrazol-1-yl]-2-[(4S)-2,2,4-trimethylpyrrolidin-1-yl]Pyridine-3-carboxamide] | Active |
| C[C@@H]1CN(c2nc(-n3ccc([Si](C)(C)C(C)(C)C)n3)ccc2C(=O)NS(=O)(=O)c2ccccc2)C(C)(C)C1 [Compound 2-14, N-(benzenesulfonyl)-6-[3-[Tert-butyl(Dimethyl)Silyl]Pyrazol-1-yl]-2-[(4S)-2,2,4-trimethylpyrrolidin-1-yl]Pyridine-3-carboxamide] | Active |
| C[C@@H]1CN(c2nc(-n3ccc(OC[Si](C)(C)C(C)(C)C)n3)ccc2C(=O)NS(=O)(=O)c2ccccc2)C(C)(C)C1 [Compound 2-15, N-(Benzenesulfonyl)-6-[3-[[tert-butyl(dimethyl)silyl]methoxy]pyrazol-1-yl]-2-[(4S)-2,2,4-trimethylpyrrolidin-1-yl]pyridine-3-carboxamide] | Active |
| C[C@@H]1CN(c2nc(-n3ccc(OCC(C)(C)C(F)(F)F)n3)ccc2C(=O)NS(=O)(=O)c2cccc([Si](C)(C)C)c2)C(C)(C)C1 [Compound 2-16, 6-[3-(3,3,3-trifluoro-2,2-dimethyl-propoxy)pyrazol-1-yl]-2-[(4S)-2,2,4-trimethylpyrrolidin-1-yl]—N—(3-trimethylsilylphenyl)sulfonyl-pyridine-3-carboxamide] | Active |
| C[C@@H]1CN(c2nc(-n3ccc(OCCC4(C(F)(F)F)CC4)n3)ccc2C(=O)NS(=O)(=O)c2cccc([Si](C)(C)C)c2)C(C)(C)C1 [Compound 2-17, 6-[3-[2-[1-(Trifluoromethyl)Cyclopropyl]Ethoxy]Pyrazol-1-yl]-2-[(4S)-2,2,4-trimethylpyrrolidin-1-yl]-N-(3-trimethylsilylphenyl)Sulfonyl-pyridine-3-carboxamide] | Active |
| C[C@@H]1CN(c2nc(-n3ccc([Si](C)(C)C)n3)ccc2C(=O)NS(=O)(=O)c2ccccc2)C(C)(C)C1 [Compound 2-18, N-(benzenesulfonyl)-2-[(4S)-2,2,4-trimethylpyrrolidin-1-yl]-6-(3-trimethylsilylpyrazol-1-yl)pyridine-3-carboxamide] | Active |
